Test results as given in patent publication US9815831B2, “3,5-disubstituted-3H-imidazo[4,5-B]pyridine and 3,5-disubstituted-3H-[1,2,3]triazolo[4,5-B] pyridine compounds as modulators of c-Met protein kinases” (Rhizen Pharmaceuticals SA, priority 2012, dated 2017).
Where two headings read alike, the source gives them in different places.

Legend:
MKN-45 = assay: Inhibition of MKN-45 proliferation (MTT); format: cell-based, human; details: Homo sapiens, MKN-45, Table 4A; for inhibition at 0.1 µM: 100 nM, read-out: MKN45 % inhibition @ 100 nM; for GI50: read-out: MKN45 GI50
Description: 3. Inhibition of MKN-45 Proliferation:
Cell proliferation assays were carried out using the high Met expressing human gastric adenocarcinoma cell line, MKN-45, according to the following schedule: • Day 1: Cells were plated in 96-well plates in complete growth medium. • Day 2: Compounds at desired concentrations were added. • Day 5: Cell viability was determined using the 3-[4,5-dimethylthiazol-2-yl]-2,5-diphenyltetrazolium bromide (MTT) dye reduction test. Results: The results are as given as % Inhibition of MKN-45 proliferation at 100 nM and GI50 values in Table 4A to 4C above. 4. Inhibition of c-Met Kinase Phosphorylation in MKN-45 Cells: […]

[1] = target: T1, human recombinant Met kinase (Homo sapiens, UniProt P08581); assay: Colorimetric determination of c-Met kinase activity (HTScan Met Kinase Assay Kit); format: biochemical; details: for inhibition at 0.1 µM: 100 nM (cells without *), read-out: c-Met Enzyme % inhibition @ 100 nM; for inhibition: cells marked *: tested @ 300 nM, read-out: c-Met Enzyme % inhibition
T1 construct: purchased Cell Signalling Technology, Beverly, Mass
Text: 1. MET Kinase Assay Protocol:
Colorimetric Determination of c-Met Kinase Activity
The receptor tyrosine kinase c-Met is a heterodimeric transmembrane glycoprotein involved in several cellular processes that aid in tumor progression. Phosphorylation of the tyrosine residues in the c-Met kinase domain is critical for its activity and the resulting down-stream effects. The colorimetric assay allows detection of the phosphorylated form of a biotinylated peptide upon activation of human recombinant Met kinase.
MET Kinase Assay Protocol:
c-Met Kinase activity shall be determined using an HTScan® Met Kinase Assay Kit (Cell Signalling Technology, Beverly, Mass.) with modifications. All incubations are carried out at room temperature. Briefly, 12.5 μl of a 4× reaction cocktail (DTT/Kinase buffer containing appropriate quantity of human Met kinase) is added to each well of a 96-well plate containing 12.5 μl pre-diluted compound of interest and incubated for 5 minutes. After the initial incubation, 25 μl/well of 2×ATP/biotinylated peptide is added and incubated for an additional 30 minutes. The reaction is terminated by the addition of 50 μl/well stop buffer (50 mM EDTA, pH 8.0). The reaction mixture (25 μl/well) is then transferred to a streptavidin coated plate (Perkin Elmer, Cat#4009-0010) containing 75 μl dH2O and incubated for 60 minutes. The plate is washed with 200 μl/well wash buffer (1×PBS, 0.05% Tween-20). After washing, 100 μl/well phospho-tyrosine mAb (1:1000 in wash buffer containing 1% BSA) is added and incubated for 60 minutes. After another round of washes, 100 μl/well europium labelled anti-mouse IgG (1:500 in wash buffer containing 1% BSA) is added and incubated for an additional 30 minutes. Following additional washes, 100 μl/well Delfia^(R) enhancement solution (Perkin Elmer, Cat#1244-105) is added and incubated for 45 minutes. Florescence is measured on a microplate reader (BMG Labtech., Germany) at 340 nm (excitation) and 615 nm (emission) for calculating % inhibition. Data generated can be analyzed further using Graphpad Prism (Graphpad software, San Diego Calif.) for determination of IC50.
Results: The results are as given below in Table 4A, 4B and 4C as % Inhibition or IC50 of c-Met

T1 sequence (P08581 25-1390): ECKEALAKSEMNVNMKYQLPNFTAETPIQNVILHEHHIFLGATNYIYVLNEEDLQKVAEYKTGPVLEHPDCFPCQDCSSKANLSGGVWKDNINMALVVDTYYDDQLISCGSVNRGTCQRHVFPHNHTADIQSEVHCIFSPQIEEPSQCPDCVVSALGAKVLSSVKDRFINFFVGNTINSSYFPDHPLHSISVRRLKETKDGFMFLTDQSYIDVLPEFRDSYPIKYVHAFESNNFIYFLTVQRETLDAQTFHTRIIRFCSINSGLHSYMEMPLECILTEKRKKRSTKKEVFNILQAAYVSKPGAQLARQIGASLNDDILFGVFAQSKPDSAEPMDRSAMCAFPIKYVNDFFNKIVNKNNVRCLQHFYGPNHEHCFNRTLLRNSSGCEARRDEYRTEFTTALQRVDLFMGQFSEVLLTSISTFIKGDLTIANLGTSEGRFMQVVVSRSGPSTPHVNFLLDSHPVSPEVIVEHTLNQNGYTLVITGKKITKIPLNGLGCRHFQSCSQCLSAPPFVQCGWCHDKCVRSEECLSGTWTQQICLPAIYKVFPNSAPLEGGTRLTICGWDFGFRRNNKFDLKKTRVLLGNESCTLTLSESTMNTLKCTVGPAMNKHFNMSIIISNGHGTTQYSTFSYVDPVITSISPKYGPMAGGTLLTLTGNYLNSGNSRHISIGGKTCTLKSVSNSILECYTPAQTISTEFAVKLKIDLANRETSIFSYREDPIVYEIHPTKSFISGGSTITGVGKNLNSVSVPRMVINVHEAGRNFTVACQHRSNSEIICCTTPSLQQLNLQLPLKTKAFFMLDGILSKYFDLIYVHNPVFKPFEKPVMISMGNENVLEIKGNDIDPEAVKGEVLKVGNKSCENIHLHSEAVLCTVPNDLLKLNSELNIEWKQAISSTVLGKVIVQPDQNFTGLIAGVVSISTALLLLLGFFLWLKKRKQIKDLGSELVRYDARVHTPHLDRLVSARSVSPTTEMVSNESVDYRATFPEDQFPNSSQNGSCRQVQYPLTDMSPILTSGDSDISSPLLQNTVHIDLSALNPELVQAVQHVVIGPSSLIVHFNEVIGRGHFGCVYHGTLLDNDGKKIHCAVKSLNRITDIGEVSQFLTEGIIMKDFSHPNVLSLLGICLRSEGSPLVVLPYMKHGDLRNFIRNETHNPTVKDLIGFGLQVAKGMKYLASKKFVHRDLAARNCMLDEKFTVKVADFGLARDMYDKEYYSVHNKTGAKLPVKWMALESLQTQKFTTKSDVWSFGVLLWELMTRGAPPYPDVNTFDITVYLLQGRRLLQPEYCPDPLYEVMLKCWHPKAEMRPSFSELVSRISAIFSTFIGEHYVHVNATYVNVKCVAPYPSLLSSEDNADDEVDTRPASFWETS

inhibition at 0.1 µM ([1]; Table 4A)	GI50 (MKN-45; MKN-45 proliferation)	Structure (SMILES)	inhibition at 0.1 µM (MKN-45; MKN-45 proliferation)	further results
75 to 100%	25 to 50 nM	CC(C)(O)CONC(=O)c1c(F)cc(-c2ccc3nnn(Cc4ccc5ncccc5c4)c3n2)cc1F [Example 34, 2,6-difluoro-N-(2-hydroxy-2-methylpropoxy)-4-(3-(quinolin-6-ylmethyl)-3H-[1,2,3]triazolo[4,5-b]pyridin-5-yl)benzamide]	75 to 100%	–
75 to 100%	25 to 50 nM	CC(C)(O)CONC(=O)c1ccc(-c2ccc3nnn(Cc4ccc5ncccc5c4)c3n2)cc1F [Example 35, 2-fluoro-N-(2-hydroxy-2-methylpropoxy)-4-(3-(quinolin-6-ylmethyl)-3H-[1,2,3]triazolo[4,5-b]pyridin-5-yl)benzamide]	75 to 100%	–
75 to 100%	–	Cc1cc(-c2ccc3nnn(Cc4ccc5ncccc5c4)c3n2)ccc1C(=O)NOC[C@@H](C)O [Example 38, (R)—N-(2-hydroxypropoxy)-2-methyl-4-(3-(quinolin-6-ylmethyl)-3H-[1,2,3]triazolo[4,5-b]pyridin-5-yl)benzamide]	75 to 100%	–
75 to 100%	–	Cc1cc(-c2ccc3nnn(Cc4ccc5ncccc5c4)c3n2)ccc1C(=O)NOC(C)(C)CO [Example 39, N-(1-hydroxy-2-methylpropan-2-yloxy)-2-methyl-4-(3-(quinolin-6-ylmethyl)-3H-[1,2,3]triazolo[4,5-b]pyridin-5-yl)benzamide]	75 to 100%	–

Second part, the compound before the results:

Structure (SMILES)	inhibition at 0.1 µM ([1]; Table 4A)	GI50 (MKN-45; MKN-45 proliferation)	inhibition at 0.1 µM (MKN-45; MKN-45 proliferation)	further results
NC(=O)CNC(=O)c1ccc(-c2ccc3nnn(Cc4ccc5cccnc5c4)c3n2)cc1 [Example 1, N-(2-amino-2-oxoethyl)-4-(3-(quinolin-7-ylmethyl)-3H-[1,2,3]triazolo[4,5-b]pyridin-5-yl) benzamide]	75 to 100%	–	–	inhibition at 0.1 µM (MKN-45; cell printed as a number, not a class letter): 0%
NC(=O)CCNC(=O)c1ccc(-c2ccc3nnn(Cc4ccc5ncccc5c4)c3n2)cc1 [Example 3, N-(3-amino-3-oxopropyl)-4-(3-(quinolin-6-ylmethyl)-3H-[1,2,3]triazolo[4,5-b]pyridin-5-yl)benzamide]	–	100 to 250 nM	–	inhibition ([1]; Table 4A): 50 to 75%
CNC(=O)CCNC(=O)c1ccc(-c2ccc3nnn(Cc4ccc5ncccc5c4)c3n2)cc1 [Example 4, N-(3-(methylamino)-3-oxopropyl)-4-(3-(quinolin-6-ylmethyl)-3H-[1,2,3]triazolo[4,5-b]pyridin-5-yl)benzamide]	–	250 to 1000 nM	–	inhibition ([1]; Table 4A): 75 to 100%
O=C(NOCCO)c1ccc(-c2ccc3nnn(Cc4ccc5ncccc5c4)c3n2)cc1 [Example 22, N-(2-hydroxyethoxy)-4-(3-(quinolin-6-ylmethyl)-3H-[1,2,3]triazolo[4,5-b]pyridin-5-yl)benzamide]	75 to 100%	50 to 100 nM	50 to 75%	–
O=C(NOCCO)c1ccc(-c2ccc3nnn(Cc4ccc5ncccc5c4)c3n2)cc1C(F)(F)F [Example 23, N-(2-hydroxyethoxy)-4-(3-(quinolin-6-ylmethyl)-3H-[1,2,3]triazolo[4,5-b]pyridin-5-yl)-2-(trifluoromethyl)benzamide]	75 to 100%	50 to 100 nM	75 to 100%	–
O=C(NOCCO)c1ccc(-c2ccc3nnn(Cc4cc5cccnc5cc4F)c3n2)cc1C(F)(F)F [Example 24, 4-(3-((7-fluoroquinolin-6-yl)methyl)-3H-[1,2,3]triazolo[4,5-b]pyridin-5-yl)-N-(2-hydroxyethoxy)-2-(trifluoromethyl)benzamide]	75 to 100%	25 to 50 nM	75 to 100%	–
Cc1cc(-c2ccc3nnn(Cc4cc5cccnc5cc4F)c3n2)ccc1C(=O)NOCCO [Example 26, 4-(3-((7-fluoroquinolin-6-yl)methyl)-3H-[1,2,3]triazolo[4,5-b]pyridin-5-yl)-N-(2-hydroxyethoxy)-2-methylbenzamide]	75 to 100%	25 to 50 nM	75 to 100%	–
O=C(NOCCO)c1ccc(-c2ccc3nnn(Cc4cc5cccnc5cc4F)c3n2)cc1F [Example 27, 2-fluoro-4-(3-((7-fluoroquinolin-6-yl)methyl)-3H-[1,2,3]triazolo[4,5-b]pyridin-5-yl)-N-(2-hydroxyethoxy)benzamide]	75 to 100%	25 to 50 nM	75 to 100%	–
CC(O)CONC(=O)c1ccc(-c2ccc3nnn(Cc4ccc5ncccc5c4)c3n2)cc1Cl (stereo not drawn) [Example 28, 2-chloro-N-(2-hydroxypropoxy)-4-(3-(quinolin-6-ylmethyl)-3H-[1,2,3]triazolo[4,5-b]pyridin-5-yl)benzamide]	75 to 100%	25 to 50 nM	75 to 100%	–
CCOC(=O)CONC(=O)c1ccc(-c2ccc3nnn(Cc4ccc5ncccc5c4)c3n2)cc1Cl [Example 29, ethyl 2-(2-chloro-4-(3-(quinolin-6-ylmethyl)-3H-[1,2,3]triazolo[4,5-b]pyridin-5-yl)benzamidooxy)acetate]	75 to 100%	100 to 250 nM	< 25%	–
C/C(=N\Nc1ccccn1)c1ccc2nnn(Cc3ccc4ncccc4c3)c2n1 [Example 51, 6-((5-(1-(2-(pyridin-2-yl)hydrazono)ethyl)-3H-[1,2,3]triazolo[4,5-b]pyridin-3-yl)methyl)quinoline]	–	–	< 25%	inhibition ([1]; Table 4A): < 25%
C/C(=N\NC(=O)OC(C)(C)C)c1ccc2nnn(Cc3ccc4ncccc4c3)c2n1 [Example 53, tert-butyl 2-(1-(3-(quinolin-6-ylmethyl)-3H-[1,2,3]triazolo[4,5-b]pyridin-5-yl)ethylidene)hydrazinecarboxylate]	–	–	< 25%	inhibition ([1]; Table 4A): < 25%
COC(=O)N/N=C(\C)c1ccc2nnn(Cc3ccc4ncccc4c3)c2n1 [Example 58, Methyl 2-(1-(3-(quinolin-6-ylmethyl)-3H-[1,2,3]triazolo[4,5-b]pyridin-5-yl)ethylidene)hydrazinecarboxylate]	–	–	25 to 50%	inhibition ([1]; Table 4A): < 25%
C/C(=N\OCCO)c1ccc2nnn(Cc3ccc4ncccc4c3)c2n1 [Example 62, 1-(3-(quinolin-6-ylmethyl)-3H-[1,2,3]triazolo[4,5-b]pyridin-5-yl)ethanone O-2-hydroxyethyl oxime]	–	–	< 25%	inhibition ([1]; Table 4A): < 25%
NC(=O)c1ccc(-c2ccc3nnn(Cc4ccc5[nH]c(=O)ccc5c4)c3n2)cc1Cl [Example 1004, 2-chloro-4-(3-((2-oxo-1,2-dihydroquinolin-6-yl)methyl)-3H-[1,2,3]triazolo[4,5-b]pyridin-5-yl)benzamide]	–	–	–	inhibition ([1]; Table 4C): < 25%
NC(=O)c1c(F)cc(-c2ccc3nnn(Cc4ccc5[nH]c(=O)ccc5c4)c3n2)cc1F [Example 1005, 2,6-difluoro-4-(3-((2-oxo-1,2-dihydroquinolin-6-yl)methyl)-3H-[1,2,3]triazolo[4,5-b]pyridin-5-yl)benzamide]	–	–	–	inhibition at 0.1 µM ([1]; Table 4C): < 25%
NC(=O)c1c(F)cc(-c2ccc3ncn(Cc4ccc5ncccc5c4)c3n2)cc1F [Example 1010, 2,6-difluoro-4-(3-(quinolin-6-ylmethyl)-3H-imidazo[4,5-b]pyridin-5-yl) benzamide]	–	–	–	inhibition ([1]; Table 4C): < 25%
CCNC(=O)c1ccc(-c2ccc3ncn(Cc4ccc5ncccc5c4)c3n2)cc1Cl [Example 1013, 2-chloro-N-ethyl-4-(3-(quinolin-6-ylmethyl)-3H-imidazo[4,5-b]pyridin-5-yl)benzamide]	–	–	–	inhibition ([1]; Table 4C): < 25%
O=C1NCc2cc(-c3ccc4nnn(Cc5ccc6ncccc6c5)c4n3)ccc21 [Example 1032, 5-(3-Quinolin-6-ylmethyl-3H-[1,2,3]triazolo[4,5-b]pyridin-5-yl)-2,3-dihydro-isoindol-1-one]	–	–	–	inhibition at 0.1 µM ([1]; Table 4C): 75 to 100%
O=C1NCc2cc(-c3ccc4ncn(Cc5ccc6ncccc6c5)c4n3)ccc21 [Example 1033, 5-(3-Quinolin-6-ylmethyl-3H-imidazo[4,5-b]pyridin-5-yl)-2,3-dihydro-isoindol-1-one]	–	–	–	inhibition at 0.1 µM ([1]; Table 4C): < 25%
